{"source": "patent US20250073249A1", "about": "“STEROID COMPOUND, AND PREPARATION METHOD THEREFOR AND USE THEREOF” (SHANGHAI INSTITUTE OF MATERIA MEDICA, CHINESE ACADEMY OF …, priority 2022, published 2025)", "key": {"AR(F876L)": {"biological_target": "T1, AR(F876L) (Homo sapiens, UniProt P10275, F877L)", "T1 construct": "expressed in transfected cells; host or cells: HEK293", "T1 sequence (P10275 1-920 F877L)": "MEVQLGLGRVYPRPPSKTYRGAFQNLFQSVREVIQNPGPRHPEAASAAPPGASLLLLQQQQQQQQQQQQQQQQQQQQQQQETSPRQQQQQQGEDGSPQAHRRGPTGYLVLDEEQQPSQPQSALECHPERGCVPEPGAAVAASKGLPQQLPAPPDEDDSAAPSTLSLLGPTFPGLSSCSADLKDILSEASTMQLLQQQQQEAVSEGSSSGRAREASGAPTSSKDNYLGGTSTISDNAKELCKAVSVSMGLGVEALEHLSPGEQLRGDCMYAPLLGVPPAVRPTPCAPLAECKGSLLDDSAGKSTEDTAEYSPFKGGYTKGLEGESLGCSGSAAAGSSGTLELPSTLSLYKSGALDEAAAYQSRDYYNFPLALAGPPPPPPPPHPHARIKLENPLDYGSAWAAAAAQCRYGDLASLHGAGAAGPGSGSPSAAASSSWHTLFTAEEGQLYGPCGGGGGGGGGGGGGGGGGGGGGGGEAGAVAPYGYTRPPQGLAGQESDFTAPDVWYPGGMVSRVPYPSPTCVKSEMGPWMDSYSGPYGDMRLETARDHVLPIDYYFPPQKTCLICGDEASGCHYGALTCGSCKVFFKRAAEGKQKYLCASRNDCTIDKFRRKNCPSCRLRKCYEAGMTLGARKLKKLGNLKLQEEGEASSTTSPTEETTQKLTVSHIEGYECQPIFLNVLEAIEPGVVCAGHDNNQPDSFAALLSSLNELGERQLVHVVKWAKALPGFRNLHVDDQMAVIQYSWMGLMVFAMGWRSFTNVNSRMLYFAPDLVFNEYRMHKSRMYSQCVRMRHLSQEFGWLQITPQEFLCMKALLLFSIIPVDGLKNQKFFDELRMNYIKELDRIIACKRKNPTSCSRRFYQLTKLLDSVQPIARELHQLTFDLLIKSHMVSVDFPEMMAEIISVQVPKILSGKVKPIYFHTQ", "test": "Mutant AR antagonistic activity test, F876L (reporter gene in HEK293 cells)", "assay_type": "cell-based", "details": "DHT 10 nM, 24 hours, read-out: F876L IC50(nM) 2nd gen AR antagonist resistant mutation", "procedure": "HEK293 cells were cultured in DMEM supplemented with 10% FBS and 1% GlutaMax at 37° C. with 5% CO2. The day before transfection, the medium was changed to DMEM containing 10% charcoal-stripped FBS and 1% GlutaMax. […] The cell suspension was diluted with cell seeding solution, and the transfection reagent was added to achieve 500,000 cells/mL. Subsequently, 90 μL of cell suspension was seeded into each well of the assay plate. The next day, compounds were prepared: starting from 8 mM, 3-fold serial dilutions were performed in DMSO for a total of 8 points, then 500 nL was transferred to the compound plate using Echo. The compounds were then diluted with 40 μL of medium to 10× final concentration, and 10 μL was transferred to the cell plate and incubated at 37° C. for 30 minutes. Subsequently, 10 nL of DHT at a final concentration of 10 nM was transferred to each well of the assay plate using TECAN. After 24 hours of incubation, 100 μL of Steady-Glo was added to the assay plate and read on an Envision reader. Data were determined and analyzed using GraphPad Prism."}, "wild-type AR": {"biological_target": "T2, wild-type AR (Homo sapiens, UniProt P10275)", "T2 construct": "expressed in transfected cells; host or cells: HEK293", "T2 sequence (P10275 1-920)": "T1 sequence (P10275 1-920 F877L) with L877F", "test": "Wild-type AR antagonist activity test (luciferase reporter in HEK293 cells)", "assay_type": "cell-based", "details": "for pIC50: HEK293 cells, luciferase expression, DHT 1.5 nM, 24 hours; for AR antagonist activity, times higher than that of the control enzalutamide: ratio to enzalutamide IC50", "procedure": "HEK293 cells were cultured in DMEM containing 10% fetal bovine serum (FBS) at 37° C. with 5% CO2. The cells were then digested with trypsin and counted. A 10 μL/well transfection solution was prepared in opti-MEM containing 5 ng androgen receptor clone, 100 ng pGL4.36 vector, and 315 nL fugene. […] The diluted cell suspension was seeded into 96-well plates at 90 μL (40,000 cells/well), and the plates were incubated for 24 hours. Then, 10 μL of drug solution (including gradient diluted compounds or DMSO) was added, and the plates were incubated for 30 minutes. […] After 24 hours of incubation, 100 μL of Steady-Glo was added to each well of the plate, the plate was shaken at room temperature for 20 minutes, and read on an Envision."}}, "note": "Residue numbers refer to the chain shown, from its start. pIC50: −log10 of the molar value."}
{"smiles": "Cc1cn(C2=CCC3C4CC=C5C[C@@H](NC(=O)c6ccncc6)CC[C@]5(C)C4CC[C@]23C)cn1", "note": "(stereo partly drawn) [Compound 14, N-((3S,10R,13S)-10,13-dimethyl-17-(4-methyl-1H-imidazol-1-yl)-2,3,4,7,8,9,10,11,12,13,14,15-dodecahydro-1H-cyclopenta[a]phenanthren-3-yl)isonicotinamide]", "values": [{"measurement": "IC50", "setting": "AR(F876L)", "value": 268, "unit": "nM"}, {"measurement": "pIC50", "setting": "wild-type AR", "value": 6.61}, {"measurement": "AR antagonist activity, times higher than that of the control enzalutamide", "setting": "wild-type AR", "value": 1.8, "unit": "times"}]}
{"smiles": "Cc1cn(C2=CCC3C4CC=C5C[C@@H](NC(=O)c6ccc(F)cc6)CC[C@]5(C)C4CC[C@]23C)cn1", "note": "(stereo partly drawn) [Compound 33, N-((3S,10R,13S)-17-(4-methyl-1H-imidazol-1-yl)-10,13-dimethyl-2,3,4,7,8,9,10,11,12,13,14,15-dodecahydro-1H-cyclopenta[a]phenanthren-3-yl)-4-fluorobenzamide]", "values": [{"measurement": "IC50", "setting": "AR(F876L)", "value": 390, "unit": "nM"}, {"measurement": "pIC50", "setting": "wild-type AR", "value": 6.92}, {"measurement": "AR antagonist activity, times higher than that of the control enzalutamide", "setting": "wild-type AR", "value": 3.6, "unit": "times"}]}
{"smiles": "Cc1cn(C2=CCC3C4CC=C5C[C@@H](NC(=O)c6ccc(S(C)(=O)=O)cc6)CC[C@]5(C)C4CC[C@]23C)cn1", "note": "(stereo partly drawn) [Compound 35, N-((3S,10R,13S)-17-(4-methyl-1H-imidazol-1-yl)-10,13-dimethyl-2,3,4,7,8,9,10,11,12,13,14,15-dodecahydro-1H-cyclopenta[a]phenanthren-3-yl)-4-(methylsulfonyl)benzamide]", "values": [{"measurement": "IC50", "setting": "AR(F876L)", "value": 326, "unit": "nM"}, {"measurement": "pIC50", "setting": "wild-type AR", "value": 6.36}]}
{"smiles": "Cc1cn(C2=CCC3C4CC=C5C[C@@H](NC(=O)c6ccc(F)cc6F)CC[C@]5(C)C4CC[C@]23C)cn1", "note": "(stereo partly drawn) [Compound 37, N-((3S,10R,13S)-17-(4-methyl-1H-imidazol-1-yl)-10,13-dimethyl-2,3,4,7,8,9,10,11,12,13,14,15-dodecahydro-1H-cyclopenta[a]phenanthren-3-yl)-2,4-difluorobenzamide]", "values": [{"measurement": "IC50", "setting": "AR(F876L)", "value": 273, "unit": "nM"}, {"measurement": "pIC50", "setting": "wild-type AR", "value": 6.63}, {"measurement": "AR antagonist activity, times higher than that of the control enzalutamide", "setting": "wild-type AR", "value": 1.9, "unit": "times"}]}
